Values of other authors as cited in US20230120480A1, “METHODS FOR REMOVING CONTAMINANTS FROM PLANT-DERIVED PHARMACEUTICALS” (priority 2021, published 2023).

Conditions: permissible limit of the pesticide in Cannabis, State of Oregon

Row | Compound | Action Level (ppm)
1 | Cc1c(COC(=O)[C@@H]2[C@H](/C=C(\Cl)C(F)(F)F)C2(C)C)cccc1-c1ccccc1 (racemic) [Bifenthrin] | 0.2
2 | COP(=O)(NC(C)=O)SC (centres unmarked) [Acephate] | 0.4
3 | CCCCCCCCCCCCC1=C(OC(C)=O)C(=O)c2ccccc2C1=O [Acequinocyl] | 2
4 | C/C(=N\C#N)N(C)Cc1ccc(Cl)nc1 [Acetamiprid] | 0.2
5 | CNC(=O)O/N=C/C(C)(C)SC [Aldicarb] | 0.4
6 | CO/C=C(/C(=O)OC)c1ccccc1Oc1cc(Oc2ccccc2C#N)ncn1 [Azoxystrobin] | 0.2
7 | COc1ccc(-c2ccccc2)cc1NNC(=O)OC(C)C [Bifenazate] | 0.2
8 | O=C(Nc1ccccc1-c1ccc(Cl)cc1)c1cccnc1Cl [Boscalid] | 0.4
9 | CNC(=O)Oc1cccc2ccccc12 [Carbaryl] | 0.2
10 | CNC(=O)Oc1cccc2c1OC(C)(C)C2 [Carbofuran] | 0.2
11 | CNC(=O)c1cc(Cl)cc(C)c1NC(=O)c1cc(Br)nn1-c1ncccc1Cl [Chlorantranili- prole] | 0.2
12 | CCOCn1c(-c2ccc(Cl)cc2)c(C#N)c(Br)c1C(F)(F)F [Chlorfenapyr] | 1
13 | CC1(C)C(C=C(Cl)Cl)C1C(=O)OC(C#N)c1ccc(F)c(Oc2ccccc2)c1 (centres unmarked) [Cyfluthrin] | 1
14 | COP(=O)(OC)OC=C(Cl)Cl [DDVP (Dichlorvos)] | 0.1
15 | CCOP(=S)(OCC)Oc1cc(C)nc(C(C)C)n1 [Diazinon] | 0.2
16 | CNC(=O)CSP(=S)(OC)OC [Dimethoate] | 0.2
17 | CCOc1ccc(C(C)(C)COCc2cccc(Oc3ccccc3)c2)cc1 [Etofenprox] | 0.4
18 | CCOc1cc(C(C)(C)C)ccc1C1COC(c2c(F)cccc2F)=N1 (centres unmarked) [Etoxazole] | 0.2
19 | CCOC(=O)NCCOc1ccc(Oc2ccccc2)cc1 [Fenoxycarb] | 0.2
20 | Cc1nn(C)c(Oc2ccccc2)c1/C=N/OCc1ccc(C(=O)OC(C)(C)C)cc1 [Fenpyroximate] | 0.4
21 | N#Cc1nn(-c2c(Cl)cc(C(F)(F)F)cc2Cl)c(N)c1[S+]([O-])C(F)(F)F (centres unmarked) [Fipronil] | 0.4
22 | N#CCNC(=O)c1cnccc1C(F)(F)F [Flonicamid] | 1
23 | N#Cc1c[nH]cc1-c1cccc2c1OC(F)(F)O2 [Fludioxonil] | 0.4
24 | CC1C(c2ccc(Cl)cc2)SC(=O)N1C(=O)NC1CCCCC1 (centres unmarked) [Hexythiazox] | 1
25 | C=CCOC(Cn1ccnc1)c1ccc(Cl)cc1Cl (centres unmarked) [Imazalil] | 0.2
26 | O=[N+]([O-])NC1=NCCN1Cc1ccc(Cl)nc1 [Imidacloprid] | 0.4

Row | Compound | Action Level (ppm)
27 | CO/N=C(/C(=O)OC)c1ccccc1COc1ccccc1C [Kresoxim- methyl] | 0.4
28 | CCCCC(CC)CN1C(=O)C2C3C=CC(C3)C2C1=O (centres unmarked) [MGK-264] | 0.2
29 | CCOC(=O)CC(SP(=S)(OC)OC)C(=O)OCC (centres unmarked) [Malathion] | 0.2
30 | COCC(=O)N(c1c(C)cccc1C)C(C)C(=O)OC (centres unmarked) [Metalaxyl] | 0.2
31 | CNC(=O)Oc1cc(C)c(SC)c(C)c1 [Methiocarb] | 0.2
32 | CNC(=O)ON=C(C)SC [Methomyl] | 0.4
33 | CCCCC(C#N)(Cn1cncn1)c1ccc(Cl)cc1 (centres unmarked) [Myclobutanil] | 0.2
34 | COP(=O)(OC)OC(Br)C(Cl)(Cl)Br (centres unmarked) [Naled] | 0.5
35 | CNC(=O)O/N=C(\SC)C(=O)N(C)C [Oxamyl] | 1
36 | CC(C)(C)C(O)C(Cc1ccc(Cl)cc1)n1cncn1 (centres unmarked) [Paclobutrazol] | 0.4
37 | CC1(C)C(C=C(Cl)Cl)C1C(=O)OCc1cccc(Oc2ccccc2)c1 (centres unmarked) [Permethrins] | 0.2
38 | COP(=S)(OC)SCN1C(=O)c2ccccc2C1=O [Phosmet] | 0.2
39 | C#CCC1=C(C)C(OC(=O)[C@@H]2[C@@H](C=C(C)C)C2(C)C)CC1=O (some centres unmarked) [Prallethrin] | 0.2
40 | CCCC1COC(Cn2cncn2)(c2ccc(Cl)cc2Cl)O1 (centres unmarked) [Propiconazole] | 0.4
41 | CNC(=O)Oc1ccccc1OC(C)C [Propoxur] | 0.2
42 | CC(C)(C)c1ccc(CSc2cnn(C(C)(C)C)c(=O)c2Cl)cc1 [Pyridaben] | 0.2
43 | Cc1cc(C)c(C2=C(OC(=O)CC(C)(C)C)C3(CCCC3)OC2=O)c(C)c1 [Spiromesifen] | 0.2
44 | CCOC(=O)OC1=C(c2cc(C)ccc2C)C(=O)N[C@]12CC[C@@H](OC)CC2 [Spirotetramat] | 0.2
45 | CCCN(CC)CC1COC2(CCC(C(C)(C)C)CC2)O1 (centres unmarked) [Spiroxamine] | 0.4
46 | CC(C)(C)C(O)(CCc1ccc(Cl)cc1)Cn1cncn1 (centres unmarked) [Tebuconazole] | 0.4
47 | N#C/N=C1\SCCN1Cc1ccc(Cl)nc1 [Thiacloprid] | 0.2
48 | CN1COCN(Cc2cnc(Cl)s2)/C1=N\[N+](=O)[O-] [Thiamethoxam] | 0.2
49 | CO/N=C(/C(=O)OC)c1ccccc1CO/N=C(\C)c1cccc(C(F)(F)F)c1 [Trifloxystrobin] | 0.2
50 | Abamectin | 0.5
51 | Pyrethrins | 1
52 | Spinosad | 0.2

Conditions: not given

Row | Compound | Water Soluble?
53 | CCCCCc1cc(O)c2c(c1)OC(C)(C)[C@H]1CCC(C)=C[C@@H]21 (relative stereo) [Delta-9-cis-tetrahydrocannabinol] | No
54 | CCCCCc1cc(O)c2c(c1)OC(C)(C)C1=C2CC(C)(O)C(O)C1 (centres unmarked) [8,9-Dihydroxy-delta-6a-tetrahydrocannabinol] | No
55 | CCCCCc1cc(O)c2c(c1)OC(C)(C)C1=C2C(OCC)C(C)(O)CC1 (centres unmarked) [10-Ethoxy-9-hydroxy-delta-6a-tetrahydrocannabinol] | No
56 | CCCCCc1cc(O)c2c(c1)OC(C)(C)C1=C2C(=O)C(C)CC1 (centres unmarked) [10-Oxo-delta-6a-tetrahydrocannabinol] | No
57 | CCCCCc1cc(O)c2c(c1)OC(C)(C)[C@H](CCC(C)=O)C2=O [Cannabichromanon] | No
58 | CCCCCc1cc(O)c2c(c1)OC(C)(CCC=C(C)C)C=C2 (centres unmarked) [Cannabichromene] | No
59 | CCCCCc1cc2c(c(O)c1C(=O)O)C=CC(C)(CCC=C(C)C)O2 (centres unmarked) [Cannabichromenic acid] | Yes
60 | CCCc1cc(O)c2c(c1)OC(C)(CCC=C(C)C)C=C2 (centres unmarked) [Cannabichromevarin] | No
61 | CCCc1cc2c(c(O)c1C(=O)O)C=CC(C)(CCC=C(C)C)O2 (centres unmarked) [Cannabichromevarinic acid] | No
62 | CCCCCc1cc(O)c2c(c1)OC1(C)CCC3C1C2C3(C)C (centres unmarked) [Cannabicyclol] | No
63 | CCCCCc1cc2c(c(O)c1C(=O)O)C1C3C(CCC3(C)O2)C1(C)C (centres unmarked) [Cannabicyclolic acid] | Yes
64 | CCCc1cc(O)c2c(c1)OC1(C)CCC3C1C2C3(C)C (centres unmarked) [Cannabicyclovarin] | No
65 | C=C(C)[C@@H]1CCC(C)=C[C@H]1c1c(O)cc(CCCCC)cc1OC [Cannabidiol monomethylether] | No
66 | C=C(C)[C@@H]1CCC(C)=C[C@H]1c1c(O)cc(CCCCC)cc1O [Cannabidiol, reference compound] | No
67 | C=C(C)[C@@H]1CCC(C)=C[C@H]1c1c(O)cc(CCCCC)c(C(=O)O)c1O [Cannabidiolic acid] | No
68 | C=C(C)[C@@H]1CCC(C)=C[C@H]1c1c(O)cc(C)cc1O [Cannabidiorcol] | No
69 | C=C(C)[C@@H]1CCC(C)=C[C@H]1c1c(O)cc(CCC)cc1O [Cannabidivarin] | No

Row | Compound | Water Soluble?
70 | C=C(C)[C@@H]1CCC(C)=C[C@H]1c1c(O)cc(CCC)c(C(=O)O)c1O [Cannabidivarinic acid] | Yes
71 | C=C(C)[C@@H]1CC[C@](C)(O)[C@H]2Oc3c(C(=O)O)c(CCCCC)cc(O)c3[C@@H]12 [Cannabielsoic acid B] | No
72 | C=C(C)[C@@H]1CC[C@](C)(O)[C@H]2Oc3cc(CCCCC)c(C(=O)O)c(O)c3[C@@H]12 [Cannabielsoin acid A] | No
73 | C=C(C)[C@@H]1CC[C@](C)(O)[C@H]2Oc3cc(CCCCC)cc(O)c3[C@@H]12 [Cannabielsoin] | No
74 | CCCCCc1cc(O)c(C/C=C(\C)CCC=C(C)C)c(OC)c1 [Cannabigerol monomethylether] | No
75 | CCCCCc1cc(O)c(C/C=C(\C)CCC=C(C)C)c(O)c1 [Cannabigerol] | No
76 | CCCCCc1cc(OC)c(C/C=C(\C)CCC=C(C)C)c(O)c1C(=O)O [Cannabigerolic acid monomethylether] | Yes
77 | CCCCCc1cc(O)c(C/C=C(\C)CCC=C(C)C)c(O)c1C(=O)O [Cannabigerolic acid] | Yes
78 | CCCc1cc(O)c(C/C=C(\C)CCC=C(C)C)c(O)c1 [Cannabigerovarin] | No
79 | CCCc1cc(O)c(C/C=C(\C)CCC=C(C)C)c(O)c1C(=O)O [Cannabigerovarinic acid] | Yes
80 | CCCc1cc(O)c2c(c1)OC1(C)CCC(C(C)(C)O)C2C1 (centres unmarked) [Cannabiglendol] | No
81 | C=C(C)c1ccc(C)cc1-c1c(O)cc(CCCCC)cc1O [Cannabinodiol] | No
82 | C=C(C)c1ccc(C)cc1-c1c(O)cc(CCC)cc1O [Cannabinodivarin] | No
83 | CCCCCc1cc(OC)c2c(c1)OC(C)(C)c1ccc(C)cc1-2 [Cannabinol methylether] | No
84 | CCc1cc(O)c2c(c1)OC(C)(C)c1ccc(C)cc1-2 [Cannabinol-C2] | No
85 | CCCCc1cc(O)c2c(c1)OC(C)(C)c1ccc(C)cc1-2 [Cannabinol-C4] | No
86 | CCCCCc1cc2c(c(O)c1C(=O)O)-c1cc(C)ccc1C(C)(C)O2 [Cannabinolic acid] | Yes
